The source of these data is paper PMC12029992, “Beyond-Rule-of-Five Compounds Are Not Different: In Vitro–In Vivo Extrapolation of Female CD-1 Mouse Clearance Based on Merck Healthcare KGaA Compound Set” (Pharmaceuticals, 2025).

Like-named read-outs stand apart in the source and are kept apart here.

The subject of one data set is Caco-2 cells (TC7 clone). As to the kind of experiment: Caco-2 assay (permeability, efflux ratio). In kind it is in vitro ADME. The method, then:
Reagents and Materials: Phosphate Buffer 20mM pH 7.4: EMS, Art No. 11601-40; DMSO Merck Art. No. 102950; Acetonitrile Merck, Art. No. 100030, Methanol Merck Art. No.
106007; Formic Acid Merck Art.No.100264; Acetonitrile Merck Art. No.10030; Filtration Plate Millipore MultiScreen HTS HV 0.45uM; 96 Well Millipore Art. No. MSHVN4510; Column Waters XBridge Column C8 3.5μm (Waters Cat. No. 186003053); HPLC vials VWR Cat. No. 5480028; Micro-Inserts VWR Cat. No. 548-0006; Screw caps VWR Cat. No.
The Caco-2 assays were performed in a transwell assay setup using Caco-2 cells (TC7 clone). The Caco-2 cells were seeded into the apical wells (125000 cells per well) in DMEM (Dulbecco’s Modified Eagle’s Medium) with 20% FBS (fetal bovine serum) into Corning 24-well transwell plates and cultured for 14-21 days. Prior to the experiment, the plates were washed with HBSS (Hanks' Balanced Salt Solution). Apparent permea-bility Papp was determined from apical-to-basolateral (Papp,AB) by adding 1 […] in HBSS into the apical compartment and HBSS in the basolateral compart-ment, and vice versa for Papp,BA from basolateral-to-apical. Apical volumes were 250 μL, basolateral volumes were 750 μL. DMSO content was <1 % (v/v) in all wells. Monolayer tightness was controlled using melagatran as tightness marker.
Samples were taken from both compartments at timepoint t0 and after 2 hours incuba-tion at 37 °C in 5% CO2 and 100% humidity, and analyzed via UHPLC-MS/MS. The ap-parent permeability Papp was calculated as follows:
P௔௣௣ = Δc௥௘௖Δt∙ V௥௘௖A x cௗ௢௡,଴
Where ∆crec/∆t is the change of concentration in the receiver compartment over the incu-bation time (i.e. 2 hours), Vrec is volume of the receiver compartment, cdon,0 is the concen-tration in the donor compartment at time t0, and A is the surface of the membrane on which the cells grew (i.e. 0.33 cm²).
Mass balance was checked after the experiment by determining the recovery after the […]
Recovery = nௗ௢௡,௘௡ௗ + nௗ௢௡,௥௘௖= cௗ௢௡,௘௡ௗ ∙Vௗ௢௡ + c௥௘௖ ,௘௡ௗ ∙V௥௘௖
The efflux ratio (ER) describes affinity towards efflux transporters:
The geometric mean of Papp,AB and Papp,BA was used as passive permeability Papp,pass.

A further data set has as its system female CD-1 mouse. As to the kind of experiment: Pharmacokinetic studies in mice (IV clearance). In kind it is in vivo. The note with it: for in vivo obs. CL,b: blood clearance; for in vivo obs. CLint,b: blood intrinsic clearance; for in vivo obs. CLint,b,u: unbound blood intrinsic clearance. The protocol: Pharmacokinetic studies were carried out after approval by the internal animal welfare board and in compliance with the local and international animal welfare regulations similarly to a method described previously. Generally, three or twelve CD-1 mice per study were dosed intravenously (0.2–1 mg/kg) using solution vehicles, predominantly 40% PEG 200 in 1% DMSO. For the majority of the studies, blood samples were taken retro-orbitally under inhalation of anesthesia (0.1, 0.5, 1, 2, 4, 6, and 24 h). For the remaining studies, blood sampling was performed both retro-orbitally (0.1, 0.5, 1, 2, and 24 h) and from the saphenous vein (4 and 6 h) (N = 51), from the dorsal metatarsal vein (N = 34), or submandibularly (N = 12). Plasma was obtained by centrifugation (10,000× g; 4 °C; 5 min) and stored at −20 °C until UHPLC-MS/MS analysis. By the addition of an ACN solution containing internal standard, the proteins were precipitated and dissevered by centrifugation. The concentration of the respective molecules studied was determined by a standard UHPLC-MS/MS method (generic method similar to the method described for the determination of CLint using experimentally determined compound MS tuning parameters). Plasma concentrations were determined for each time point sampled. Clearance was estimated from the AUC by non-compartmental analysis, which was performed using WinNonlin® (Princeton, NJ, USA). The geometric mean was used when more than one clearance value from different studies was available.
CLp/Rb observed CLint,b=QH∗obs. CL,b/QH−obs. CL,b
All unbound clearance terms were calculated by dividing the respective clearance by fu,p. predicted/observed CL,b,u=pred./obs. CL,b/fu,p

The nature of data set [1]: Unbound fraction in the hepatocyte incubation (fu,hep) by rapid equilibrium dialysis. Format: in vitro ADME, mouse. The note with it: for fu,hep: experimental unbound fraction in hepatocyte incubation. The protocol: The free fraction in mouse plasma, in the microsome incubation, and in the hepatocyte incubation was determined using rapid equilibrium dialysis (RED) in Teflon-coated 96-well RED devices. Test compounds were added as DMSO stocks to the donor matrix at 0.5 µM (final DMSO concentration of 0.5%) and dialyzed against phosphate buffer (70 mM, pH 7.4) in the receiver compartment for 4 h at 37 °C.
The donor matrices differed for the various unbound fractions. […] Mouse serum was dialyzed overnight to exchange the carbonate with a phosphate buffer and was then used as a donor matrix in the experiment (50% serum in 70 mM phosphate buffer, pH 7.4). For fu,mic, human liver microsomes were used as a surrogate for mouse microsomes as a donor matrix in the experiment (0.8 mg protein/mL in 70 mM phosphate buffer, pH 7.4). For fu,hep, mouse hepatocytes were inactivated by incubating overnight at room temperature and then used as a donor matrix in the experiment (0.2 million cells/mL in 70 mM phosphate buffer, pH 7.4).
Samples were taken from both compartments after 4 h of incubation and analyzed via UHPLC-MS/MS. The unbound fraction, fu, was calculated as follows: fu=creceiver/cdonor
The fu values were interconverted from one matrix concentration to another using the following formula: fu2=fu1/M2/M1−fu1·M2/M1−1 where fu2 at matrix concentration M2 can be calculated from the fu1 value at matrix concentration M1.
The recovery was calculated to check the mass balance after the experiment by adding the total compound levels in both the donor and receiver compartments.

For `O=C(O)c1cc(-c2ccc(F)cc2F)ccc1O` [MSC001], the “CaCo-2 Efflux ratio ER” value with Caco-2 cells (TC7 clone) was determined as 2.6. In addition, the “CaCo-2 Papp Passive” value with Caco-2 cells (TC7 clone) (apparent passive permeability) is recorded as 25.85 10e-6 cm/s. Moreover, in the data set on female CD-1 mouse, the “in vivo obs. CL,b” value is recorded as 2.83 mL/min/kg, the “in vivo obs. CLint,b” value turned out to be 2.91 mL/min/kg and the “in vivo obs. CLint,b,u” value turned out to be 170.57 mL/min/kg. In data set [1], the “fu,hep” value amounted to 97.45%. Further, the “fu,hep recovery” value in data set [1] (recovery in fu,hep dialysis) amounted to 232%.

In the case of `CNC(=O)c1cc(Oc2ccc3nc(N[C@@H]4CCCC[C@H]4O)sc3c2)ccn1` [MSC003], the “CaCo-2 Efflux ratio ER” value in the data set on Caco-2 cells (TC7 clone) is 1.4. For the same compound, the “CaCo-2 Papp Passive” value with Caco-2 cells (TC7 clone) (apparent passive permeability) is 31.60 10e-6 cm/s. In the data set on female CD-1 mouse, the “in vivo obs. CL,b” value was found to be 6.38 mL/min/kg, the “in vivo obs. CLint,b” value was found to be 6.81 mL/min/kg and the “in vivo obs. CLint,b,u” value is recorded as 89.15 mL/min/kg. For the same compound, in data set [1], the “fu,hep” value turned out to be 100.00%. Further, the “fu,hep recovery” value in data set [1] (recovery in fu,hep dialysis) came to 80%.

Consider `N#Cc1c[nH]c2c(C(=O)N3CCN(CCc4ccc(F)cc4)CC3)cccc12` [MSC213], for which, in the data set with Caco-2 cells (TC7 clone) (Caco-2), the “CaCo-2 Efflux ratio ER” value is on record as 1.0 and the “CaCo-2 Papp Passive” value is recorded as 24.10 10e-6 cm/s. Besides, in the data set with female CD-1 mouse, the “in vivo obs. CL,b” value is on record as 63.61 mL/min/kg, the “in vivo obs. CLint,b” value is reported as 169.91 mL/min/kg and the “in vivo obs. CLint,b,u” value was 3658.76 mL/min/kg. Moreover, in data set [1], the “fu,hep” value was found to be 87.81%. The “fu,hep recovery” value in data set [1] (recovery in equilibrium dialysis) is reported as 136%.

On to `COc1cccc(OCCCN)c1-c1cc(Nc2cnc(C#N)cn2)n[nH]1` [MSC020], for which, in the data set on Caco-2 cells (TC7 clone), the “CaCo-2 Efflux ratio ER” value is 48.4. Further, in the data set with Caco-2 cells (TC7 clone) (apparent passive permeability), the “CaCo-2 Papp Passive” value is recorded as 2.67 10e-6 cm/s. Moreover, in the data set with female CD-1 mouse, the “in vivo obs. CL,b” value was 77.00 mL/min/kg, the “in vivo obs. CLint,b” value was 317.36 mL/min/kg and the “in vivo obs. CLint,b,u” value was 1652.94 mL/min/kg. Besides, the “fu,hep” value in data set [1] was 91.30%. In addition, the “fu,hep recovery” value in data set [1] (recovery in fu,hep dialysis) is recorded as 50%.
